Laboratory results from patent US11655235B2, “Pyrrolidine and piperidine compounds” (YUHAN CORPORATION, priority 2019, dated 2023).

What was measured:
Recombinant human FAP = target: T1, Recombinant human FAP (Homo sapiens, UniProt Q12884); assay: FAP inhibition, fluorogenic substrate Z-Gly-Pro-AMC; format: biochemical; conditions: for IC50: 25° C., Z-Gly-Pro-AMC substrate; for inhibition at 1 µM: read-out: hFAP inhibition % at 1 μM
T1 construct: purchased R&D systems
T1 sequence (Q12884 1-760): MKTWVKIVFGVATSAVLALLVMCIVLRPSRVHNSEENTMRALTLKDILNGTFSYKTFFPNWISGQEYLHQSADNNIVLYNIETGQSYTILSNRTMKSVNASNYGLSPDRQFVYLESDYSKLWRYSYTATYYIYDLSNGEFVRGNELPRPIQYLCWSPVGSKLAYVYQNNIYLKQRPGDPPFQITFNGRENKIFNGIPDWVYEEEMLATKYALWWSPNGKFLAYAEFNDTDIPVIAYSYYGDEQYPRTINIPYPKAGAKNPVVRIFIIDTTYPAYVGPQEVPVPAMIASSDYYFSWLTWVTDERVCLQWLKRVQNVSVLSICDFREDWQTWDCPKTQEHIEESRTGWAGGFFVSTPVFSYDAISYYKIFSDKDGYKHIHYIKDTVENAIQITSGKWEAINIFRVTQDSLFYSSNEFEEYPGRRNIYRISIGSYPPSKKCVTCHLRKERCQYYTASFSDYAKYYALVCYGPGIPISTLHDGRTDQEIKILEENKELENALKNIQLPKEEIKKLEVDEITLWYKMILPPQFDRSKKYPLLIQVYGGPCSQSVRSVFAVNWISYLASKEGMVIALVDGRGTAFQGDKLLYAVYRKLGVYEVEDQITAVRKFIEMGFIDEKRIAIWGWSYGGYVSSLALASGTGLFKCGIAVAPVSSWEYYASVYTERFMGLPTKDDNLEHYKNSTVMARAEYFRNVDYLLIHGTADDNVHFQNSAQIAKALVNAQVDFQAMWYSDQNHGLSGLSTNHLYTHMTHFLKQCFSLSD
Procedure: The compounds according to the present technology were evaluated in terms of the inhibitory effect on the activity of dipeptidyl peptidases including FAP by using a substrate producing fluorescent substances upon enzymatic decomposition. The test was conducted at 25° C. to get a final reaction volume of 100 μL in a 96 black well plate. […] Briefly, the test compounds were dissolved in dimethyl sulfoxide (DMSO) at a concentration of 20 mM and then subjected to serial dilution, thereby creating an 8 point curve. As for the control group, a 6 point curve created by serial dilution of Talabostat in the same buffer solution was used. Fluorescence intensity was measured using a microplate reader (Flexstation3, Molecular Devices) under the wavelength condition exciting at 380 nm and reading the emission at 460 nm. The inhibitory effect of the test compounds was measured as a decrease (%) in the signal rate as compared to the control group without any inhibitor. Data was fixed to a logistic model with four variables and IC50 value was calculated using GraphPad Prism program. Recombinant human FAP (R&D systems) was diluted with 50 mM tris (pH 7.5) buffer comprising 1 M of sodium chloride and 1 mg/ml of bovine serum albumin (BSA) to be 10 ng per final reaction. The test compounds were subjected to serial dilution in a buffer under the condition containing up to 0.1% of DMSO. Z-Gly-Pro-AMC (Bachem) was used as a substrate. By dissolving in DMSO and then diluting in the same buffer, the substrate was added to be […] per final reaction.

DPP4 = DPP4 (Homo sapiens, UniProt P27487); assay: DPP4 inhibition, fluorogenic substrate H-Gly-Pro-AMC; format: biochemical; set-up: purchased R&D Systems; conditions: for inhibition at 1 µM: read-out: hDPP4 inhibition % at 1 μM
Procedure: The compounds according to the present technology were evaluated in terms of the inhibitory effect on the activity of dipeptidyl peptidases including FAP by using a substrate producing fluorescent substances upon enzymatic decomposition. The test was conducted at 25° C. to get a final reaction volume of 100 μL in a 96 black well plate. […] Briefly, the test compounds were dissolved in dimethyl sulfoxide (DMSO) at a concentration of 20 mM and then subjected to serial dilution, thereby creating an 8 point curve. As for the control group, a 6 point curve created by serial dilution of Talabostat in the same buffer solution was used. Fluorescence intensity was measured using a microplate reader (Flexstation3, Molecular Devices) under the wavelength condition exciting at 380 nm and reading the emission at 460 nm. The inhibitory effect of the test compounds was measured as a decrease (%) in the signal rate as compared to the control group without any inhibitor. Data was fixed to a logistic model with four variables and IC50 value was calculated using GraphPad Prism program. As for recombinant human DPP4 (R&D Systems), 25 mM tris (pH 8.0) buffer as a buffer solution and H-Gly-Pro-AMC (Bachem) as a substrate were used. As for recombinant human DPP7 (R&D Systems), 25 mM MES (pH 6.0) buffer as a buffer solution and Lys-Pro-AMC (Bachem) as a substrate were used. As for recombinant human DPP8 (PBS Bioscience), as a buffer solution, a 10 mM tris (pH 7.4) buffer comprising 10 mM of magnesium chloride and 0.05% of Tween 20, and Z-Ala-Pro-AMC (BPS Bioscience) as a substrate were used. As for recombinant human DPP9 (R&D Systems), a 25 mM tris (pH 8.0) buffer as a buffer solution and H-Gly-Pro-AMC (Bachem) as a substrate were used. As for recombinant human PREP (R&D System), as a buffer solution, a 25 mM tris (pH 7.5) buffer comprising 250 mM sodium chloride and 2.5 mM DTT (Dithiolthreitol), and Z-Gly-Pro-AMC (Bachem) as a substrate were used. The evaluation was made by using 10 ng of DPP4, PDD7, and PREP, 20 ng of DPP8, and 50 ng of DPP9 based on the final reaction. In the evaluation of DPP4, the test compounds were subjected to serial dilution in a buffer under the condition containing up to 0.1% of DMSO. In the evaluation of DPP7, DPP8, DPP9, and PREP, the test compounds were subjected to serial dilution in each buffer under the condition containing up to 0.5% of DMSO.

DPP4, sequence (P27487 whole entry): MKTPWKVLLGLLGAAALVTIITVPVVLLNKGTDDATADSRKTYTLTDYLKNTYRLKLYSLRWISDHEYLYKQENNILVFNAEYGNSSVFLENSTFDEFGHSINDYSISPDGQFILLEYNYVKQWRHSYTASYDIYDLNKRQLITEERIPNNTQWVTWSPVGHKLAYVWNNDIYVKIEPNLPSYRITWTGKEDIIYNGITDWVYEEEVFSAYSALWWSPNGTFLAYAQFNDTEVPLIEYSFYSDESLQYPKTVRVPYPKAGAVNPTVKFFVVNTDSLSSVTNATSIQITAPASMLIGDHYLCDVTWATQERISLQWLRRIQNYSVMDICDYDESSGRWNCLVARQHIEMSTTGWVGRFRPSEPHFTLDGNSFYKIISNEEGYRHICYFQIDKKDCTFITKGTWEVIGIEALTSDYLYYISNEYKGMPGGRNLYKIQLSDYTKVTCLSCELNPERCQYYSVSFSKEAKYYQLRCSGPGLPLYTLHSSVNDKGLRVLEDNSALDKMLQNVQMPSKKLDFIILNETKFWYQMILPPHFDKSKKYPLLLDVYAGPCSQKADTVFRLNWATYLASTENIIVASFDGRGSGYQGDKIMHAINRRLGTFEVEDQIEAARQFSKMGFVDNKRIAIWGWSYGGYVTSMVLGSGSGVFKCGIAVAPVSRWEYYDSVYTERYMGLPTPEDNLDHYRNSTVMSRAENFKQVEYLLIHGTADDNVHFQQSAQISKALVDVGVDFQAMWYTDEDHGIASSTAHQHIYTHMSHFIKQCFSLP

| IC50 (Recombinant human FAP) [nM] | hDPP4 inhibition % at 1 μM (DPP4) | inhibition at 1 µM (Recombinant human FAP) [%] | inhibition at 1 µM (DPP4) [%] | SMILES |
| --- | --- | --- | --- | --- |
| 191 | No inhibition** |  |  | N#C[C@@H]1CCCN1C(=O)CN1CC[C@H](NC(=O)c2cccc3cccnc23)C1 [Example 34, N—((S)-1-(2-((S)-2-cyanopyrrolidin-1-yl)-2-oxoethyl)pyrrolidin-3-yl)quinoline-8-carboxamide] |
|  | No inhibition** | 76.1 |  | N#C[C@@H]1CCCN1C(=O)CN1CC[C@H](NC(=O)c2nccc3ccccc23)C1 [Example 35, N—((S)-1-(2-((S)-2-cyanopyrrolidin-1-yl)-2-oxoethyl)pyrrolidin-3-yl)isoquinoline-1-carboxamide] |
| 170 | No inhibition** |  |  | N#C[C@@H]1CCCN1C(=O)CN1CC[C@H](NC(=O)Cc2cccc3ccccc23)C1 [Example 38, N—((S)-1-(2-((S)-2-cyanopyrrolidin-1-yl)-2-oxoethyl)pyrrolidin-3-yl)-2-(naphthalen-1-yl)acetamide] |
|  |  | 68.1 | 0.4 | N#C[C@@H]1CCCN1C(=O)CN1CC[C@H](NC(=O)c2ccccc2-c2ccccc2)C1 [Example 39, N—((S)-1-(2-((S)-2-cyanopyrrolidin-1-yl)-2-oxoethyl)pyrrolidin-3-yl)-[1,1′-biphenyl]-2-carboxamide] |
| 38.3 |  |  | 3.2 | N#C[C@@H]1CCCN1C(=O)CN1CC[C@H](NC(=O)c2cc3ccccc3o2)C1 [Example 40, N—((S)-1-(2-((S)-2-cyanopyrrolidin-1-yl)-2-oxoethyl)pyrrolidin-3-yl)benzofuran-2-carboxamide] |
|  |  | 84.6 | 1.4 | Cc1oc2ccccc2c1C(=O)N[C@H]1CCN(CC(=O)N2CCC[C@H]2C#N)C1 [Example 42, N—((S)-1-(2-((S)-2-cyanopyrrolidin-1-yl)-2-oxoethyl)pyrrolidin-3-yl)-2-methylbenzofuran-3-carboxamide] |
| 30.1 |  |  | 1.2 | Cc1cccc2c(C(=O)N[C@H]3CCN(CC(=O)N4CCC[C@H]4C#N)C3)coc12 [Example 45, N—((S)-1-(2-((S)-2-cyanopyrrolidin-1-yl)-2-oxoethyl)pyrrolidin-3-yl)-7-methylbenzofuran-3-carboxamide] |
| 18.8 |  |  | 3.7 | COc1cccc2c(C(=O)N[C@H]3CCN(CC(=O)N4CCC[C@H]4C#N)C3)coc12 [Example 47, N—((S)-1-(2-((S)-2-cyanopyrrolidin-1-yl)-2-oxoethyl)pyrrolidin-3-yl)-7-methoxybenzofuran-3-carboxamide] |
| 16.4 | No inhibition** |  |  | N#C[C@@H]1CCCN1C(=O)CN1CC[C@H](NC(=O)c2coc3c(F)cccc23)C1 [Example 50, N—((S)-1-(2-((S)-2-cyanopyrrolidin-1-yl)-2-oxoethyl)pyrrolidin-3-yl)-7-fluorobenzofuran-3-carboxamide] |
| 13.6 |  |  | 0.5 | Cc1ccc2occ(C(=O)N[C@H]3CCN(CC(=O)N4CCC[C@H]4C#N)C3)c2c1 [Example 52, N—((S)-1-(2-((S)-2-cyanopyrrolidin-1-yl)-2-oxoethyl)pyrrolidin-3-yl)-5-methylbenzofuran-3-carboxamide] |
| 17.7 |  |  | 1.3 | Cc1ccc2c(C(=O)N[C@H]3CCN(CC(=O)N4CCC[C@H]4C#N)C3)coc2c1 [Example 53, N—((S)-1-(2-((S)-2-cyanopyrrolidin-1-yl)-2-oxoethyl)pyrrolidin-3-yl)-6-methylbenzofuran-3-carboxamide] |
| 20 |  |  | 1.1 | N#C[C@@H]1CCCN1C(=O)CN1CC[C@H](NC(=O)c2cccc3occc23)C1 [Example 55, N—((S)-1-(2-((S)-2-cyanopyrrolidin-1-yl)-2-oxoethyl)pyrrolidin-3-yl)benzofuran-4-carboxamide] |
| 45.2 |  |  | 2.4 | N#C[C@@H]1CCCN1C(=O)CN1CC[C@H](NC(=O)c2ccc3occc3c2)C1 [Example 56, N—((S)-1-(2-((S)-2-cyanopyrrolidin-1-yl)-2-oxoethyl)pyrrolidin-3-yl)benzofuran-5-carboxamide] |
| 62.5 | No inhibition** |  |  | N#C[C@@H]1CCCN1C(=O)CN1CC[C@H](NC(=O)c2cccc3ccoc23)C1 [Example 58, N—((S)-1-(2-((S)-2-cyanopyrrolidin-1-yl)-2-oxoethyl)pyrrolidin-3-yl)benzofuran-7-carboxamide] |
|  | No inhibition** | 33.4 |  | N#C[C@@H]1CCCN1C(=O)CN1CC[C@H](NS(=O)(=O)c2cc3ccccc3o2)C1 [Example 59, N—((S)-1-(2-((S)-2-cyanopyrrolidin-1-yl)-2-oxoethyl)pyrrolidin-3-yl)benzofuran-2-sulfonamide] |
|  | No inhibition** | 44.2 |  | N#C[C@@H]1CCCN1C(=O)CN1CC[C@H](NS(=O)(=O)c2cc3ccccc3s2)C1 [Example 60, N—((S)-1-(2-((S)-2-cyanopyrrolidin-1-yl)-2-oxoethyl)pyrrolidin-3-yl)benzo[b]thiophene-2-sulfonamide] |
| 75.1 | No inhibition** |  |  | N#C[C@@H]1CCCN1C(=O)CN1CC[C@H](Oc2cccc3ccccc23)C1 [Example 62, (S)-1-(2-((S)-3-(naphthalen-1-yloxy)pyrrolidin-1-yl)acetyl)pyrrolidine-2-carbonitrile] |
| 130 | No inhibition** |  |  | N#C[C@@H]1CCCN1C(=O)CN1CC[C@H](Oc2ccc3ncccc3c2)C1 [Example 63, (S)-1-(2-((S)-3-(quinolin-6-yloxy)pyrrolidin-1-yl)acetyl)pyrrolidine-2-carbonitrile] |
|  | No inhibition** | 64 |  | N#C[C@@H]1CCCN1C(=O)CN1CC[C@H](Oc2ccc3c(c2)OCO3)C1 [Example 67, (S)-1-(2-((S)-3-(benzo[d][1,3]dioxol-5-yloxy)pyrrolidin-1-yl)acetyl)pyrrolidine-2-carbonitrile] |
| 64.3 |  |  | 8 | N#C[C@@H]1CCCN1C(=O)CN1CC[C@H](Oc2cc3ccccc3cn2)C1 [Example 69, (S)-1-(2-((S)-3-(isoquinolin-3-yloxy)pyrrolidin-1-yl)acetyl)pyrrolidine-2-carbonitrile] |
